Measured values taken from patent US6964975B2, “Isoxazole and thiazole compounds and use thereof as medicine” (Kirin Beer Kabushiki Kaisha, priority 2000, dated 2005).

Columns and labels:
Human EDG-2/HepG2 cells = experiment: Inhibitory activity on LPA-accelerated [3H] thymidine incorporation (cell proliferation); type: cell-based; details: 50% inhibition of LPA-induced increase of [3H] thymidine incorporation
Excerpt: (§1) The human EDG-2 expression plasmid was introduced into HepG2 cells by electroporation. After the introduction, culturing was continued while exchanging selective media every 3 to 4 days, thereby obtaining an expressed colony. Regarding these cells, Ca-influx and cell-proliferation by LPA, level of [^3H] LPA binding and the like were inspected to select a cell line which highly expresses human EDG-2 (human EDG-2/HepG2).
Human EDG-2/HepG2 cells suspended in 10% bovine serum-containing DMEM (Dulbecco's modified eagle medium) were plated on a 96-well plate and, on the next day, the medium was exchanged with serum-free DMEM. 24 hours later, the medium was exchanged with DMEM containing LPA or DMEM containing no LPA, cells were cultured for further 16 hours, and [^3H] thymidine was then added. After culturing for 8 hours subsequent to the addition of [^3H] thymidine, cells were washed with PBS (phosphate-buffered saline), and the amount of [^3H] thymidine incorporated into the cells were assayed by Betaplate filter counter system (Amersham Pharmacia Biotech). The difference between the amount of [^3H] thymidine incorporated in the LPA-added well and the amount of [^3H] thymidine incorporated in the well containing no LPA represents the amount of [^3H] thymidine incorporation accelerated by LPA. […] The test compounds were added immediately before the LPA addition.

human EDG-2 = target: T1, human EDG-2 (Homo sapiens, UniProt Q92633); experiment: Inhibitory activity on LPA-induced elevation of intracellular Ca2+ level; type: cell-based; details: 50% inhibition of elevation of intracellular Ca2+ level by LPA, human EDG-2/HepG2 cells, fura-2
T1 construct: cDNA of the cloned human EDG-2 was introduced into pEFneo, which is an animal expression vector; expressed in transfected cells; host or cells: HepG2
Excerpt: as §1
Human EDG-2/HepG2 cells were washed and then suspended in 0.1% BSA (bovine serum albumin)-containing HEPES buffer. A fluorescent indicator, fura-2/AM (Wako Pure Chemical Industries, Ltd.), was added, and the mixture was shaken at room temperature for 45 minutes so that the indicator is included in the cell. Cells were washed again and then suspended in 0.1% BSA-containing HEPES buffer, and intracellular Ca^2+ level was assayed using FDSS2000 (Hamamatsu Photonics). […] Each test compound was added to the cell suspension followed by the addition of LPA, thereby examining the inhibitory activity of the test compound on the function of LPA for elevating the intracellular Ca level. […] The lower the IC50 value, the higher the antagonistic activity on the LPA receptor.

T1 sequence (Q92633 whole entry): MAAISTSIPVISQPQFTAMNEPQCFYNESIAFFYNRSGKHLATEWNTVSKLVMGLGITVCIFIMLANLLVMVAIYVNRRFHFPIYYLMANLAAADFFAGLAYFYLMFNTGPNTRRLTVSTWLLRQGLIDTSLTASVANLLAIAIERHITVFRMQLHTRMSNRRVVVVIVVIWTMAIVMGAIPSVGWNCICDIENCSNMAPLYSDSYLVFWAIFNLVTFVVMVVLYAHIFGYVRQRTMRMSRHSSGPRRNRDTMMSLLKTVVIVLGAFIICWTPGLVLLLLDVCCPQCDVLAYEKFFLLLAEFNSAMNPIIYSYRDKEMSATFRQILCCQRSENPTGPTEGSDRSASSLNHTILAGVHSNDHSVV

SMILES | IC50 (Human EDG-2/HepG2 cells) [µM] | IC50 (human EDG-2) [µM]
Cc1onc(-c2ccccc2F)c1NC(=O)OC(C)c1ccccc1Cl (stereo not shown) [Compound 20, 1-(2-Chlorophenyl)ethyl N-[3-(2-fluorophenyl)-5-methyl-4-isoxazolyl]carbamate] | 1 | 3
Cc1onc(-c2ccccc2)c1NC(=O)OC(C)c1ccccc1Cl (stereo not shown) [Compound 4, 1-(2-Chlorophenyl)ethyl N-(5-methyl-3-phenyl-4-isoxazolyl)carbamate] | 1 | 3
Cc1noc(-c2ccco2)c1NC(=O)OC(C)c1ccccc1Cl (stereo not shown) [Compound 32, 1-(2-Chlorophenyl)ethyl N-[5-(2-furyl)-3-methyl-4-isoxazolyl]carbamate] | 1 | 3
Cc1noc(-c2ccc(CNCc3ccccn3)cc2)c1NC(=O)OC(C)c1ccccc1Cl (stereo not shown) [Compound 105, 1-(2-Chlorophenyl)ethyl N-[3-methyl-5-(4-{[(2-pyridylmethyl)amino]methyl}-phenyl)-4-isoxazolyl]carbamate] | 1 | 10 to 30
Cc1noc(-c2ccnc(Cl)c2)c1NC(=O)OC(C)c1ccccc1Cl (stereo not shown) [Compound 71, 1-(2-Chlorophenyl)ethyl N-[5-(2-chloro-4-pyridyl)-3-methyl-4-isoxazolyl]carbamate] | 1 | 3
Cc1ccc(-c2onc(C)c2NC(=O)O[C@H](C)c2ccccc2Br)cc1 [Compound 48, (1R)-1-(2-Bromophenyl)ethyl N-[3-methyl-5-(4-methylphenyl)-4-isoxazolyl]carbamate] |  | 3 to 10
Cc1noc(-c2ccccc2Br)c1NC(=O)OC(C)c1ccccc1Cl (stereo not shown) [Compound 51, 1-(2-Chlorophenyl)ethyl N-[5-(2-bromophenyl)-3-methyl-4-isoxazolyl]carbamate] |  | 10 to 30
Cc1noc(-c2cccc(F)c2)c1NC(=O)OC(C)c1ccccc1F (stereo not shown) [Compound 34, 1-(2-Fluorophenyl)ethyl N-[5-(3-fluorophenyl)-3-methyl-4-isoxazolyl]carbamate] |  | 10
Cc1noc(-c2cccs2)c1NC(=O)OC(C)c1ccccc1Cl (stereo not shown) [Compound 57, 1-(2-Chlorophenyl)ethyl N-[3-methyl-5-(2-thienyl)-4-isoxazolyl]carbamate] |  | 3
Cc1noc(-c2ccc(COc3ccccc3)cc2)c1NC(=O)OC(C)c1ccccc1Cl (stereo not shown) [Compound 79, 1-(2-Chlorophenyl)ethyl N-[3-methyl-5-[4-(phenoxymethyl)phenyl]-4-isoxazolyl]carbamate] |  | 3
Cc1noc(-c2ccccc2)c1NC(=O)O[C@H](C)c1ccccc1Cl [Compound 18, (1R)-1-(2-Chlorophenyl)ethyl N-(3-methyl-5-phenyl-4-isoxazolyl)carbamate] |  | 3
C=CCCCOC(=O)Nc1c(-c2ccccc2)noc1C [Compound 102, 4-Pentenyl N-(5-methyl-3-phenyl-4-isoxazolyl)carbamate] |  | 30 to 100
Cc1cccc(-c2onc(C)c2NC(=O)OC(C)c2ccccc2Cl)c1 (stereo not shown) [Compound 28, 1-(2-Chlorophenyl)ethyl N-[3-methyl-5-(3-methylphenyl)-4-isoxazolyl]carbamate] |  | 10 to 30
Cc1noc(-c2cccc(OC(F)(F)F)c2)c1NC(=O)OC(C)c1ccccc1Cl (stereo not shown) [Compound 53, 1-(2-Chlorophenyl)ethyl N-[3-methyl-5-[3-(trifluoromethoxy)phenyl]-4-isoxazolyl]carbamate] |  | 30
Cc1ccc(-c2onc(C)c2NC(=O)OC(C)c2ccccc2Cl)cc1 (stereo not shown) [Compound 38, 1-(2-Chlorophenyl)ethyl N-[3-methyl-5-(4-methylphenyl)-4-isoxazolyl]carbamate] |  | 10
Cc1onc(-c2cccc(C(F)(F)F)c2)c1NC(=O)OC(C)c1ccccc1Cl (stereo not shown) [Compound 15, 1-(2-Chlorophenyl)ethyl N-[5-methyl-3-[3-(trifluoromethyl)phenyl]-4-isoxazolyl]carbamate] |  | 30

Now from value to compound:

IC50 (Human EDG-2/HepG2 cells) [µM] | IC50 (human EDG-2) [µM] | SMILES
0.3 to 1 | 3 to 10 | CC(=O)NCCSCc1ccc(-c2onc(C)c2NC(=O)OC(C)c2ccccc2Cl)cc1 (stereo not shown) [Compound 145, 1-(2-Chlorophenyl)ethyl N-{5-[4-({[2-(acetylamino)ethyl]sulfanyl}methyl)phenyl]-3-methyl-4-isoxazolyl}carbamate]
0.3 to 1 | 3 | Cc1noc(-c2ccc(CSCCC(=O)O)cc2)c1NC(=O)OC(C)c1ccccc1F (stereo not shown) [Compound 157, 3-({4-[4-({[1-(2-Fluorophenyl)ethoxy]carbonyl}amino)-3-methyl-5-isoxazolyl]benzyl}-sulfanyl)propanoic acid]
0.1 to 0.3 | 10 to 30 | CCCCSCc1ccc(-c2onc(C)c2NC(=O)OC(C)c2ccccc2Cl)cc1 (stereo not shown) [Compound 125, 1-(2-Chlorophenyl)ethyl N-(5-{4-[(butylsulfanyl)methyl]phenyl)-3-methyl-4-isoxazolyl)-carbamate]
0.03 to 0.1 | 3 to 10 | Cc1noc(-c2ccc(CSCc3ccco3)cc2)c1NC(=O)OC(C)c1ccccc1Cl (stereo not shown) [Compound 107, 1-(2-Chlorophenyl)ethyl N-[5-(4-{[(2-furylmethyl)sulfanyl]methyl}phenyl)-3-methyl-4-isoxazolyl]carbamate]
0.1 to 0.3 | 3 to 10 | Cc1noc(-c2ccc(CSc3nnnn3C)cc2)c1NC(=O)OC(C)c1ccccc1Cl (stereo not shown) [Compound 137, 1-(2-Chlorophenyl)ethyl N-[3-methyl-5-(4-{[(1-methyl-1H-1,2,3,4-tetrazol-5-yl)-sulfanyl]methyl}phenyl)-4-isoxazolyl]carbamate]
0.03 to 0.1 | 10 | Cc1noc(-c2ccc(CSCC(=O)NCc3ccco3)cc2)c1NC(=O)OC(C)c1ccccc1Cl (stereo not shown) [Compound 139, 1-(2-Chlorophenyl)ethyl N-(5-{4-[({2-[(2-furylmethyl)amino]-2-oxoethyl}sulfanyl)-methyl]phenyl)-3-methyl-4-isoxazolyl)carbamate]
0.1 to 0.3 | 3 to 10 | CCOC(=O)CSCc1ccc(-c2onc(C)c2NC(=O)OC(C)c2ccccc2Cl)cc1 (stereo not shown) [Compound 119, Ethyl 2-({4-[{4-(i [-(2-chlorophenyl)ethoxy]carbonyl}amino)-3-methyl-5-isoxazolyl]benzyl}-sulfanyl)acetate]
0.3 | 3 | Cc1noc(-c2cccc(CSCCC(=O)O)c2)c1NC(=O)OC(C)c1ccccc1Cl (stereo not shown) [Compound 159, 3-({3-[4-({[1-(2-Chlorophenyl)ethoxy]carbonyl}amino)-3-methyl-5-isoxazolyl]benzyl}-sulfanyl)propanoic acid]
0.1 to 0.3 | 3 to 10 | COCc1cccc(-c2onc(C)c2NC(=O)OC(C)c2ccccc2Cl)c1 (stereo not shown) [Compound 128, 1-(2-Chlorophenyl)ethyl N-{5-[3-(methoxymethyl)phenyl]-3-methyl-4-isoxazolyl}carbamate]
0.1 to 0.3 | 3 to 10 | Cc1noc(-c2cccc(CSc3nc[nH]n3)c2)c1NC(=O)OC(C)c1ccccc1Cl (stereo not shown) [Compound 143, 1-(2-Chlorophenyl)ethyl N-(3-methyl-5-{3-[(1H-1,2,4-triazol-3-ylsulfanyl)methyl]phenyl}-4-isoxazolyl)carbamate]
1 to 3 | 3 to 10 | CCOC(=O)COCc1ccc(-c2onc(C)c2NC(=O)OC(c2ccccc2)C(F)(F)F)cc1 (stereo not shown) [Compound 169, Ethyl 2-{[4-(3-methyl-4-{[(2,2,2-trifluoro-1-phenylethoxy)carbonyl]amino}-5-isoxazolyl)-benzyl]oxy}acetate]
